Results reported in patent publication US20070105822A1, “Novel uses of known drugs” (priority 2003, published 2007).

Tests used:
[1] = in vivo; cited from earlier work
Vγ9JPVδ2 T cells = test: IFNγ ELISpot with Vγ9JPVδ2 T cell clone Bob and spinner HeLa antigen presenting cells; assay type: cell-based, human; conditions: 1,000 Vγ9JPVδ2 T cells, 25,000 spinner HeLa cells per well, 6 hours; FIG. 1A
Method: (§1) γδ T cells were isolated from human peripheral blood using a magnetic separation kit (TCR γ/δ Microbead Kit and MS columns from Miltenyi Biotech). Once isolated, cells were resuspended in T cell medium (RPMI supplemented with 100 U/ml penicillin, 100 μg/ml streptomycin, 10% FCS, 10% T-STIM (BD Biosciences), 200 U/ml Proleukin (Chiron)) containing 2×10^6 γ-irradiated PMBC/ml from three individuals and 2 μg/ml PHA. Cells were maintained with T cell medium, and restimulated with mixed irradiated PBMC and PHA every three weeks. For cloning, the same mix was used to grow cells by limiting dilution in 96-well U-boftomed plates. Cells that grew were confirmed to be γδ T cells with Vγ9 antibody.
(§2) γδ T cells were washed in RPMI and incubated overnight in R10 at 37° C. 96-well nitrocellulose plates (Millipore) were incubated overnight at 4° C. with 15 μg/ml antihuman-IFN-γ primary antibody (clone 1-D1K; Mabtech, Sweden). The plates were then washed twice with RPMI and blocked with R10 for 3 hours at 37° C. R10 was decanted by inversion and assays applied to each well before incubation at 37° C. as detailed below. Assays were terminated by washing once in water, followed by 5 washes in PBS. Secondary antibody (anti-human-IFN-γ-Biotin antibody clone 7-B6-1; Mabtech) was applied at 1 μg/ml and the plate incubated for 100 minutes at room temperature (RT). […]

human PBMC = test: TNFα ELISA on direct ex vivo human PBMC exposed to nBPs; assay type: cell-based; conditions: 10 μM risedronate or 100 μM pamidronate, 12 hours, FIG. 1B
Method: γδ T cells were washed in RPMI and incubated overnight in R10 at 37° C. 96-well nitrocellulose plates (Millipore) were incubated overnight at 4° C. with 15 μg/ml antihuman-IFN-γ primary antibody (clone 1-D1K; Mabtech, Sweden). The plates were then washed twice with RPMI and blocked with R10 for 3 hours at 37° C. R10 was decanted by inversion and assays applied to each well before incubation at 37° C. as detailed below. Assays were terminated by washing once in water, followed by 5 washes in PBS. Secondary antibody (anti-human-IFN-γ-Biotin antibody clone 7-B6-1; Mabtech) was applied at 1 μg/ml and the plate incubated for 100 minutes at room temperature (RT). The plate was washed 6 times with PBS before application of Streptavidin-ALP (1:1000 in PBS; Mabtech) for 40 minutes at RT. […] A TNFα ELISA kit (Peprotech) was used in accordance with the manufacturers instructions.
In FIG. 1 (B), nBPs are shown to stimulate TNFA production from direct ex vivo human PBMC. […] 60 μl aliquots were removed at the specified time and added to TNFα ELISA assays.

[2] = test system: human PBMC depleted of γδ T cells; test: TNFα ELISA on PBMC after magnetic depletion of γδ T cells; assay type: cell-based; conditions: 100 μM pamidronate, 10 μM risedronate; FIG. 2A, 2B
Method: γδ T cells were washed in RPMI and incubated overnight in R10 at 37° C. 96-well nitrocellulose plates (Millipore) were incubated overnight at 4° C. with 15 μg/ml antihuman-IFN-γ primary antibody (clone 1-D1K; Mabtech, Sweden). The plates were then washed twice with RPMI and blocked with R10 for 3 hours at 37° C. R10 was decanted by inversion and assays applied to each well before incubation at 37° C. as detailed below. Assays were terminated by washing once in water, followed by 5 washes in PBS. Secondary antibody (anti-human-IFN-γ-Biotin antibody clone 7-B6-1; Mabtech) was applied at 1 μg/ml and the plate incubated for 100 minutes at room temperature (RT). The plate was washed 6 times with PBS before application of Streptavidin-ALP (1:1000 in PBS; Mabtech) for 40 minutes at RT. […]
10^8 human PBMC were incubated with 10 μg/ml of anti-human pan-γδ antibody for 30 minutes on ice. […] The success of depletion was determined by FACS analysis with the anti-CD3 and pan-γδ antibodies detailed above, and was >95% efficient in all cases shown.
5×10^6 PBMC from a healthy donor+/−magnetic depletion of γδ T cells were suspended in 1 ml of R10+/−antigen in 75×5 mm FACS tubes at 37° C. and 5% CO2 for the times shown. […] The percentage of cytokine positive cells (fluorescence intensity>20) is shown in the upper right corner of each panel.

Vγ9-expressing T cells = test: Intracellular cytokine staining (ICS) of fresh PBMC exposed to nBPs; assay type: cell-based, human; conditions: for IL6 and TNFα production by Vγ9-expressing cells by ICS: 100 μM pamidronate, FIG. 2D
Method: 10^6 fresh PBMC were incubated in FACS tubes with brefeldin A (10 μg/ml R10) for 5 hours after pulsing with relevant antigens for 1 hour. The cells were then washed, permeabilised in 20% FACSLyse (BD Biosciences), washed twice in ice cold PBS/0.1% BSA and stained on ice with pre-titred APC-conjugated anti-IFNγ, anti-TNFα and anti-IL-2 and PE-conjugated anti-Vγ9 mAbs for 20 minutes. For single cytokine analysis (FIG. 2D), cells were stained with PE-conjugated anti-IL6, APC-conjugated anti-TNFα and FITC-conjugated anti-Vγ9 antibodies. In each case, cells were then washed, resuspended in PBS & analysed immediately.
5×10^6 PBMC from a healthy donor+/−magnetic depletion of γδ T cells were suspended in 1 ml of R10+/−antigen in 75×5 mm FACS tubes at 37° C. and 5% CO2 for the times shown. 60 μl of cell supernatant was removed and applied to TNFα ELISA plates in duplicate and developed according to the manufacturers instructions. Standard deviation from the mean of the two replicate ELISAs is shown although, in most cases, this error is smaller than the plot symbol. In (C), exposure to nBPs activates PBMC that express a Vγ9 receptor and not other T cells or B cells. 10^6 fresh human PBMC were exposed to R10 (top panel) or R10+10 μM risedronate (bottom panel) for 6 hours in an intracellular cytokine staining (ICS) assay. Plots show all the cells in the lymphocyte gate stained for PE-Vγ9 and APC-cytokines (TNFα, IL2, and IFNγ). Exposure to risedronate induces cytokine production only in lymphocytes that express a Vγ9 TCR. The percentage of total lymphocytes in the Vγ9^+ cytokine^+ gate shown is indicated in the upper right of each panel. Almost 10% of the lymphocytes expressing a Vγ9 receptor are activated by exposure to nBPs. […] Plots are gated to show only Vγ9-expressing lymphocytes. […] The percentage of cytokine positive cells (fluorescence intensity>20) is shown in the upper right corner of each panel.

circulating γδ T cells = conditions: cited from earlier work
Vγ9JPVδ2 T cell clones = test: TNFα ELISA on Vγ9JPVδ2 T cell clones activated by risedronate; assay type: cell-based, human; conditions: 10 μM risedronate, 10^6 T cells, clones P, M and Bob; FIG. 1C
Method: as §1, §2

γδ T cell = conditions: cited from earlier work

SMILES	acute phase response [1]	activation of clonal Vγ9JPVδ2 T cells by IFNγ ELISpot (Vγ9JPVδ2 T cells)	TNFα production from direct ex vivo human PBMC (human PBMC)	TNFα production by PBMC after magnetic depletion of γδ T cells [2]	IL6 and TNFα production by Vγ9-expressing cells by ICS (Vγ9-expressing T cells; 10 μM risedronate)	other results
O=P(O)(O)C(Sc1ccc(Cl)cc1)P(=O)(O)O [tiludronate]	has not been observed					
NCCC(O)(P(=O)(O)O)P(=O)(O)O [pamidronate, disodium pamidronate]		activate	large amounts of TNFα	removed the ability of PBMC to produce TNFα	make both IL6 and TNFα	number of circulating γδ T cells in patients with acute phase reaction (circulating γδ T cells; 1 and 3 weeks post-infusion): substantial increase; γδ T cells as % of CD3+ cells post-infusion (circulating γδ T cells; one patient, expanded from 4.6%): 70%
O=P(O)(O)C(Cl)(Cl)P(=O)(O)O [clodronate, disodium clodronate]	has not been observed					
CC(O)(P(=O)(O)O)P(=O)(O)O [etidronate, disodium etidronate]	has not been observed					
O=P(O)(O)C(O)(Cc1cccnc1)P(=O)(O)O [risedronate, risedronate sodium]		activate	large amounts of TNFα	removed the ability of PBMC to produce TNFα	make both IL6 and TNFα	activation (TNFα production) of Vγ9JPVδ2 T cell clones (Vγ9JPVδ2 T cell clones): extremely rapid; lymphocytes expressing a Vγ9 receptor activated (cytokine+ by ICS) (Vγ9-expressing T cells; 10 μM risedronate (100 μM pamidronate, data not shown), 6 hours, TNFα, IL2, IFNγ staining, FIG. 2C): ~10%; expression of the Vγ9 TCR (Vγ9-expressing T cells; 10 μM risedronate, 6 hours, ICS): lowers the expression of the Vγ9 TCR; concentration stimulating γδ T cell expansion from human PBMC (γδ T cell): ≥ 10 nM
